In ChEMBL document CHEMBL1201862, “PubChem BioAssay data set” (2004):
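Dose response: 5 concentrations. Exposure: 48 h. Format: 96-well plates. Endpoint: linear interpolation; highest concentration if not reached. The concentration for 50% growth inhibition is given as GI50.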 The source made the active and inactive calls. No stated cut-off is given here; in the data, active = GI50 up to about 1.1 µM and inactive = higher.

Columns and labels:
Test in all cases: NCI-60 cell line screen, 48 h
[1] = test system: U-251
[2] = test system: OVCAR-5
[3] = test system: HOP-18
[4] = test system: DMS-114
[5] = test system: NCI-H522
[6] = test system: EKVX
[7] = test system: M19-MEL
[8] = test system: K562
[9] = test system: CCRF-CEM
[10] = test system: CAKI-1
[11] = test system: DMS-273
[12] = test system: SNB-75
[13] = test system: A498
[14] = test system: HOP-62
[15] = test system: SR
[16] = test system: A549
[17] = test system: UO-31
[18] = test system: SNB-78
[19] = test system: Malme-3M
[20] = test system: HCC 2998
[21] = test system: NCI-H226
[22] = test system: SK-MEL-2
[23] = test system: SF-268
[24] = test system: HOP-92
[25] = test system: DLD-1
[26] = test system: KM12
[27] = test system: OVCAR-8
[28] = test system: SK-OV-3
[29] = test system: UACC-257
[30] = test system: UACC-62
[31] = test system: LOX IMVI
[32] = test system: XF498
[33] = test system: RPMI-8226
[34] = test system: SK-MEL-5
[35] = test system: M14
[36] = test system: HT-29
[37] = test system: NCI-H460
[38] = test system: SF-295
[39] = test system: ACHN
[40] = test system: 786-0
[41] = test system: SW-620
[42] = test system: MOLT-4
[43] = test system: HCT-15
[44] = test system: OVCAR-3
[45] = test system: HL-60
[46] = test system: NCI-H23
[47] = test system: TK-10
[48] = test system: OVCAR-4
[49] = test system: IGROV-1
[50] = test system: KM-20L2
[51] = test system: COLO 205
[52] = test system: SN12C
[53] = test system: HCT-116
[54] = test system: SK-MEL-28
[55] = test system: SF-539
[56] = test system: SNB-19
[57] = test system: RXF 393
[58] = test system: MCF7
[59] = test system: NCI/ADR-RES

C1OC1CO[C@@H]1CO[C@H]2[C@@H]1OC[C@H]2OCC1CO1 (stereo partly specified) was tested, and the GI50 [1] was > 100 µM (inactive), the GI50 [2] was > 100 µM (inactive) and the GI50 [3] was > 100 µM (inactive). For the same molecule, the GI50 [4] was > 100 µM (inactive), the GI50 [5] was > 100 µM (inactive) and the GI50 [6] was > 100 µM (inactive). The GI50 [7] was > 100 µM (inactive), the GI50 [8] was > 100 µM (inactive) and the GI50 [9] was > 100 µM (inactive). The GI50 [10] was 67.9 µM (inactive), the GI50 [11] was > 100 µM (inactive) and the GI50 [12] was > 100 µM (inactive). For the same molecule, the GI50 [13] was > 100 µM (inactive), the GI50 [14] was > 100 µM (inactive) and the GI50 [15] was 89.5 µM (inactive). The GI50 [16] was > 100 µM (inactive), the GI50 [17] was > 100 µM (inactive) and the GI50 [18] was > 100 µM (inactive). The GI50 [19] was > 100 µM (inactive), the GI50 [20] was > 100 µM (inactive) and the GI50 [21] was > 100 µM (inactive). For the same molecule, the GI50 [22] was > 100 µM (inactive), the GI50 [23] was > 100 µM (inactive) and the GI50 [24] was > 100 µM (inactive). For the same molecule, the GI50 [25] was > 100 µM (inactive), the GI50 [26] was > 100 µM (inactive) and the GI50 [27] was > 100 µM (inactive). The GI50 [28] was > 100 µM (inactive), the GI50 [29] was > 100 µM (inactive) and the GI50 [30] was > 100 µM (inactive). For the same molecule, the GI50 [31] was > 100 µM (inactive), the GI50 [32] was > 100 µM (inactive) and the GI50 [33] was > 100 µM (inactive). For the same molecule, the GI50 [34] was > 100 µM (inactive), the GI50 [35] was > 100 µM (inactive) and the GI50 [36] was > 100 µM (inactive). The GI50 [37] was 61.7 µM (inactive), the GI50 [38] was > 100 µM (inactive) and the GI50 [39] was 73.1 µM (inactive). The GI50 [40] was > 100 µM (inactive), the GI50 [41] was > 100 µM (inactive) and the GI50 [42] was 78.2 µM (inactive). For the same molecule, the GI50 [43] was > 100 µM, the GI50 [44] was > 100 µM (inactive) and the GI50 [45] was 82.8 µM (inactive). The GI50 [46] was > 100 µM (inactive), the GI50 [47] was > 100 µM (inactive) and the GI50 [48] was > 100 µM (inactive). For the same molecule, the GI50 [49] was > 100 µM (inactive), the GI50 [50] was > 100 µM (inactive) and the GI50 [51] was > 100 µM (inactive). The GI50 [52] was > 100 µM (inactive), the GI50 [53] was > 100 µM (inactive) and the GI50 [54] was > 100 µM (inactive). The GI50 [55] was > 100 µM (inactive), the GI50 [56] was > 100 µM (inactive) and the GI50 [57] was > 100 µM (inactive).
O=C(O)C1CCC(=O)N1S(=O)(=O)c1ccccc1 (stereo unspecified) was tested, and the GI50 [1] was > 100 µM (inactive), the GI50 [2] was > 100 µM (inactive) and the GI50 [3] was > 100 µM (inactive). For the same molecule, the GI50 [4] was > 100 µM (inactive), the GI50 [5] was > 100 µM (inactive) and the GI50 [6] was > 100 µM (inactive). For the same molecule, the GI50 [7] was > 100 µM (inactive), the GI50 [8] was > 100 µM (inactive) and the GI50 [9] was > 100 µM (inactive). For the same molecule, the GI50 [10] was > 100 µM (inactive), the GI50 [11] was > 100 µM (inactive) and the GI50 [12] was > 100 µM (inactive). For the same molecule, the GI50 [13] was > 100 µM (inactive), the GI50 [14] was > 100 µM (inactive) and the GI50 [16] was > 100 µM (inactive). For the same molecule, the GI50 [17] was > 100 µM (inactive), the GI50 [18] was > 100 µM (inactive) and the GI50 [19] was > 100 µM (inactive). For the same molecule, the GI50 [20] was > 100 µM (inactive), the GI50 [21] was > 100 µM (inactive) and the GI50 [22] was > 100 µM (inactive). For the same molecule, the GI50 [23] was > 96.2 µM (inactive), the GI50 [24] was 99.1 µM (inactive) and the GI50 [25] was > 100 µM (inactive). The GI50 [26] was > 100 µM (inactive), the GI50 [27] was > 100 µM (inactive) and the GI50 [28] was > 100 µM (inactive). For the same molecule, the GI50 [29] was > 100 µM (inactive), the GI50 [30] was > 100 µM (inactive) and the GI50 [31] was > 100 µM (inactive). The GI50 [32] was > 100 µM (inactive), the GI50 [58] was > 100 µM (inactive) and the GI50 [33] was > 100 µM (inactive). For the same molecule, the GI50 [34] was > 100 µM (inactive), the GI50 [36] was > 100 µM (inactive) and the GI50 [37] was > 100 µM (inactive). For the same molecule, the GI50 [38] was > 100 µM (inactive), the GI50 [41] was > 100 µM (inactive) and the GI50 [42] was > 100 µM (inactive). For the same molecule, the GI50 [43] was > 100 µM, the GI50 [44] was > 100 µM (inactive) and the GI50 [45] was > 100 µM (inactive). For the same molecule, the GI50 [46] was > 100 µM (inactive), the GI50 [48] was > 100 µM (inactive) and the GI50 [49] was > 100 µM (inactive). The GI50 [59] was > 100 µM (inactive), the GI50 [50] was > 100 µM (inactive) and the GI50 [51] was > 100 µM (inactive). The GI50 [52] was > 100 µM (inactive), the GI50 [53] was > 100 µM (inactive) and the GI50 [54] was > 100 µM (inactive). The GI50 [55] was > 100 µM (inactive), the GI50 [56] was > 100 µM (inactive) and the GI50 [57] was > 100 µM (inactive).
